According to ChEMBL document CHEMBL3046449, “Selective Herbicidal Activities of Ethyl 5-(4, 6-Dimethoxypyrimidin-2-ylcarbamoylsulfamoyl)-1-methylpyrazole-4-carboxylate and Its Related Compounds” (J Pestic Sci, 1990):

What was measured:
Sagittaria pygmaea [1] = assay: Herbicidal activity against Sagittaria pygmaea assessed as weed control in transplanted rice field at 30 g/ha treated after 10 days transplanting; assay type: functional
unidentified [2] = assay: Herbicidal activity against broadleaf weed assessed as weed control in transplanted rice field at 30 g/ha treated after 10 days transplanting; assay type: functional
Echinochloa crus-galli [3] = assay: Herbicidal activity against Echinochloa crus-galli (barnyard grass) assessed as weed control in transplanted rice field at 30 g/ha treated after 10 days transplanting; assay type: functional
[4] = Phytotoxicity against Oryza sativa (rice) assessed as growth inhibition under greenhouse at 5 g/ha measured after 18 days by preemergence activity assay; assay type: organism-based; settings: in vivo, read-out: GI
Echinochloa crus-galli [5] = assay: Herbicidal activity against Echinochloa crus-galli (barnyard grass) assessed as growth inhibition measured after 2 days by preemergence activity assay; assay type: functional
Rotala indica = assay: Herbicidal activity against Rotala indica assessed as growth inhibition in paddy condition under greenhouse at 5 g/ha measured after 18 days by preemergence activity assay; assay type: functional; settings: pre-emergence, 432 h, read-out: GI
Pontederia vaginalis [6] = assay: Herbicidal activity against Monochoria vaginalis assessed as growth inhibition in paddy condition under greenhouse at 5 g/ha measured after 18 days by preemergence activity assay; assay type: functional; settings: pre-emergence, 432 h, read-out: GI
Echinochloa crus-galli [7] = assay: Herbicidal activity against Echinochloa crus-galli (barnyard grass) assessed as growth inhibition in paddy condition under greenhouse at 5 g/ha measured after 18 days by preemergence activity assay; assay type: functional; settings: pre-emergence, 432 h, read-out: GI
Oryza sativa [8] = assay: Effect on Oryza sativa (rice) plant growth in transplanted Oryza sativa field assessed as plant height at 30 g/ha treated after 10 days transplanting; assay type: organism-based; settings: in vivo, other, 240 h
Oryza sativa [9] = assay: Effect on Oryza sativa (rice) plant growth in transplanted Oryza sativa field assessed as plant height at 30 g/ha treated after 3 days transplanting; assay type: organism-based; settings: in vivo, other, 72 h
Oryza sativa [10] = assay: Effect on Oryza sativa (rice) plant growth in transplanted Oryza sativa field assessed as plant height at 20 g/ha treated after 7 days transplanting; assay type: organism-based; settings: in vivo, other, 168 h
Oryza sativa [11] = assay: Effect on Oryza sativa (rice) plant growth in transplanted Oryza sativa field assessed as plant height at 20 g/ha treated after 3 days transplanting; assay type: organism-based; settings: in vivo, other, 72 h
Cyperus serotinus [12] = assay: Herbicidal activity against Cyperus serotinus assessed as weed control in transplanted rice field at 30 g/ha treated after 15 days transplanting; assay type: functional
unidentified [13] = assay: Herbicidal activity against broadleaf weed assessed as weed control in transplanted rice field at 30 g/ha treated after 15 days transplanting; assay type: functional
[14] = test system: Schoenoplectiella juncoides; assay: Herbicidal activity against Schoenoplectiella juncoides assessed as weed control in transplanted rice field at 30 g/ha treated after 15 days transplanting; assay type: functional
Cyperus serotinus [15] = assay: Herbicidal activity against Cyperus serotinus assessed as weed control in transplanted rice field at 30 g/ha treated after 10 days transplanting; assay type: functional
Pontederia vaginalis [16] = assay: Herbicidal activity against Monochoria vaginalis assessed as weed control in transplanted rice field at 30 g/ha treated after 7 days transplanting; assay type: functional
[17] = test system: Schoenoplectiella juncoides; assay: Herbicidal activity against Schoenoplectiella juncoides assessed as weed control in transplanted rice field at 30 g/ha treated after 7 days transplanting; assay type: functional
Oryza sativa [18] = assay: Effect on Oryza sativa (rice) plant growth in transplanted Oryza sativa field assessed as number of tillers at 30 g/ha treated after 10 days transplanting; assay type: organism-based; settings: in vivo, other, 240 h
Oryza sativa [19] = assay: Effect on Oryza sativa (rice) plant growth in transplanted Oryza sativa field assessed as number of tillers at 30 g/ha treated after 3 days transplanting; assay type: organism-based; settings: in vivo, other, 72 h
Oryza sativa [20] = assay: Effect on Oryza sativa (rice) plant growth in transplanted Oryza sativa field assessed as number of tillers at 20 g/ha treated after 7 days transplanting; assay type: organism-based; settings: in vivo, other, 168 h
Oryza sativa [21] = assay: Effect on Oryza sativa (rice) plant growth in transplanted Oryza sativa field assessed as number of tillers at 20 g/ha treated after 3 days transplanting; assay type: organism-based; settings: in vivo, other, 72 h
Oryza sativa [22] = assay: Effect on Oryza sativa (rice) plant growth in transplanted Oryza sativa field assessed as plant height at 30 g/ha treated after 15 days transplanting; assay type: organism-based; settings: in vivo, 360 h
Sagittaria pygmaea [23] = assay: Herbicidal activity against Sagittaria pygmaea assessed as weed control in transplanted rice field at 20 g/ha treated after 7 days transplanting; assay type: functional
[24] = test system: Schoenoplectiella juncoides; assay: Herbicidal activity against Schoenoplectiella juncoides assessed as weed control in transplanted rice field at 20 g/ha treated after 7 days transplanting; assay type: functional
Echinochloa crus-galli [25] = assay: Herbicidal activity against Echinochloa crus-galli (barnyard grass) assessed as weed control in transplanted rice field at 20 g/ha treated after 7 days transplanting; assay type: functional
Cyperus serotinus [26] = assay: Herbicidal activity against Cyperus serotinus assessed as weed control in transplanted rice field at 20 g/ha treated after 3 days transplanting; assay type: functional
Sagittaria pygmaea [27] = assay: Herbicidal activity against Sagittaria pygmaea assessed as weed control in transplanted rice field at 20 g/ha treated after 3 days transplanting; assay type: functional
[28] = test system: Schoenoplectiella juncoides; assay: Herbicidal activity against Schoenoplectiella juncoides assessed as weed control in transplanted rice field at 20 g/ha treated after 3 days transplanting; assay type: functional
Echinochloa crus-galli [29] = assay: Herbicidal activity against Echinochloa crus-galli (barnyard grass) assessed as weed control in transplanted rice field at 20 g/ha treated after 3 days transplanting; assay type: functional
Eleocharis kuroguwai = assay: Herbicidal activity against Eleocharis kuroguwai assessed as growth inhibition treated 7 to 15 days after planting measured by post-emergence activity assay; assay type: functional
Sagittaria pygmaea [30] = assay: Herbicidal activity against two-leaf stage Sagittaria pygmaea assessed as growth inhibition treated 7 to 15 days after planting measured by post-emergence activity assay; assay type: functional
Alisma canaliculatum [31] = assay: Herbicidal activity against three to four-leaf stage Alisma canaliculatum assessed as growth inhibition treated 7 to 15 days after planting measured by post-emergence activity assay; assay type: functional
Echinochloa crus-galli [32] = assay: Herbicidal activity against 1.5 leaf stage Echinochloa crus-galli (barnyard grass) assessed as growth inhibition treated 7 to 15 days after planting measured by postemergence activity assay; assay type: functional
Cyperus serotinus [33] = assay: Herbicidal activity against Cyperus serotinus assessed as growth inhibition measured after 2 days by preemergence activity assay; assay type: functional
Sagittaria pygmaea [34] = assay: Herbicidal activity against Sagittaria pygmaea assessed as growth inhibition measured after 2 days by pre-emergence activity assay; assay type: functional
Alisma canaliculatum [35] = assay: Herbicidal activity against Alisma canaliculatum assessed as growth inhibition measured after 2 days by pre-emergence activity assay; assay type: functional
[36] = test system: Schoenoplectiella juncoides; assay: Herbicidal activity against Schoenoplectiella juncoides assessed as growth inhibition measured after 2 days by preemergence activity assay; assay type: functional
Cyperus serotinus [37] = assay: Herbicidal activity against Cyperus serotinus assessed as weed control in transplanted rice field at 30 g/ha treated after 3 days transplanting; assay type: functional
Sagittaria pygmaea [38] = assay: Herbicidal activity against Sagittaria pygmaea assessed as weed control in transplanted rice field at 30 g/ha treated after 3 days transplanting; assay type: functional
unidentified [39] = assay: Herbicidal activity against broadleaf weed assessed as weed control in transplanted rice field at 30 g/ha treated after 3 days transplanting; assay type: functional
Pontederia vaginalis [40] = assay: Herbicidal activity against Monochoria vaginalis assessed as weed control in transplanted rice field at 30 g/ha treated after 3 days transplanting; assay type: functional
[41] = test system: Schoenoplectiella juncoides; assay: Herbicidal activity against Schoenoplectiella juncoides assessed as weed control in transplanted rice field at 30 g/ha treated after 3 days transplanting; assay type: functional
Cyperus serotinus [42] = assay: Herbicidal activity against Cyperus serotinus assessed as weed control in transplanted rice field at 20 g/ha treated after 7 days transplanting; assay type: functional
unidentified [43] = assay: Herbicidal activity against broadleaf weed assessed as weed control in transplanted rice field at 20 g/ha treated after 7 days transplanting; assay type: functional

Question: Which results are given for `CCOC(=O)c1cnn(C)c1S(=O)(=O)NC(=O)Nc1nc(OC)cc(OC)n1` [PYRAZOSULFURON ETHYL]?
Answer: Activity (Sagittaria pygmaea [1]): 95%; Activity (unidentified [2]): 100%; Activity (Echinochloa crus-galli [3]): 90%; inhibition at 432 h [4]: < 5%; I75 (Echinochloa crus-galli [5]): 13 gAi/ha; inhibition of growth at 5 g/ha (Rotala indica): > 90%; inhibition of growth at 5 g/ha (Pontederia vaginalis [6]): > 90%; inhibition of growth at 5 g/ha (Echinochloa crus-galli [7]): 40%; Activity (Oryza sativa [8]): 102%; Activity (Oryza sativa [9]): 104%; Activity (Oryza sativa [10]): 107%; Activity (Oryza sativa [11]): 104%; Activity (Cyperus serotinus [12]): 97%; Activity (unidentified [13]): 100%; Activity [14]: 97%; Activity (Cyperus serotinus [15]): 97%; Activity (Pontederia vaginalis [16]): 100%; Activity [17]: 100%; Activity (Oryza sativa [18]): 101%; Activity (Oryza sativa [19]): 99%; Activity (Oryza sativa [20]): 96%; Activity (Oryza sativa [21]): 100%; Activity (Oryza sativa [22]): 101%; Activity (Sagittaria pygmaea [23]): 98%; Activity [24]: 100%; Activity (Echinochloa crus-galli [25]): 98%; Activity (Cyperus serotinus [26]): 98%; Activity (Sagittaria pygmaea [27]): 95%; Activity [28]: 97%; Activity (Echinochloa crus-galli [29]): 98%; I75 (Eleocharis kuroguwai): 7.4 gAi/ha; I75 (Sagittaria pygmaea [30]): 2.7 gAi/ha; I75 (Alisma canaliculatum [31]): 1.4 gAi/ha; I75 (Echinochloa crus-galli [32]): 18 gAi/ha; I75 (Cyperus serotinus [33]): 0.9 gAi/ha; I75 (Sagittaria pygmaea [34]): 1.9 gAi/ha; I75 (Alisma canaliculatum [35]): 2.1 gAi/ha; I75 [36]: 8.3 gAi/ha; Activity (Cyperus serotinus [37]): 100%; Activity (Sagittaria pygmaea [38]): 97%; Activity (unidentified [39]): 100%; Activity (Pontederia vaginalis [40]): 100%; Activity [41]: 100%; Activity (Cyperus serotinus [42]): 100%; Activity (unidentified [43]): 100%
